Patent publication EP0312346B1, “E. coli sequence specific acid protease” (GENENCOR INTERNATIONAL, INC., priority 1987, dated 1989)

Tested on: acid protease of E.coli
Experiment: Inhibition of the protease cleaving activity (lysis at pH 5, 26 Kd CCP fragment on Western blot)
Assay type: biochemical
From the text: E.coli expressing CCP was lysed at pH 5 in the presence of increasing concentrations of poly-L-lysine or poly-L-arginine. Any protease activity was evidenced by the appearance of the 26 Kd fragment on Western blot. […] No 26 Kd fragment appeared; DTT, PMSF and EDTA had no inhibitory effect on the lysine-lysine lysine-arginine, arginine-lysine or arginine-arginine cleaving activity of the protease.

[1] = 1 mM inhibitor, E.coli expressing CCP lysed at pH 5, no 26 Kd fragment appeared on Western blot

Substance	inhibition of the protease activity [1]	inhibition of the protease activity (no concentration stated)
poly-L-arginine	completely inhibited	inhibited
poly-L-lysine	completely inhibited	inhibited
